Results taken from ChEMBL document CHEMBL1201862, “PubChem BioAssay data set” (2004).
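Growth conditions: 96-well plates. Treatment: test compound, 48 hours, 5 concentrations. Analysis: linear interpolation between bracketing concentrations; unreached endpoints set to highest concentration. Abbreviation: GI50, concentration required for 50% inhibition of growth.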 Active and inactive are the calls of the source. Rule as the data show it: active = GI50 up to about 1.1 µM and inactive = higher.

What was measured:
Test in all cases: NCI anticancer screen, dose series, 48 h
HCT-15 = tested on: HCT-15
PC-3 = tested on: PC-3
SK-MEL-28 = tested on: SK-MEL-28
SK-MEL-2 = tested on: SK-MEL-2
SF-268 = tested on: SF-268
U-251 = tested on: U-251
NCI/ADR-RES = tested on: NCI/ADR-RES
786-0 = tested on: 786-0
EKVX = tested on: EKVX
COLO 205 = tested on: COLO 205
OVCAR-5 = tested on: OVCAR-5
HCC 2998 = tested on: HCC 2998
NCI-H522 = tested on: NCI-H522
SN12C = tested on: SN12C
LOX IMVI = tested on: LOX IMVI
SNB-19 = tested on: SNB-19
K562 = tested on: K562
UACC-257 = tested on: UACC-257
NCI-H23 = tested on: NCI-H23
A549 = tested on: A549
Hs-578T = tested on: Hs-578T
OVCAR-4 = tested on: OVCAR-4
DU-145 = tested on: DU-145
RXF 393 = tested on: RXF 393
SNB-75 = tested on: SNB-75
SK-MEL-5 = tested on: SK-MEL-5
HCT-116 = tested on: HCT-116
M14 = tested on: M14
NCI-H460 = tested on: NCI-H460
RPMI-8226 = tested on: RPMI-8226
NCI-H226 = tested on: NCI-H226
SK-OV-3 = tested on: SK-OV-3
CCRF-CEM = tested on: CCRF-CEM
MDA-MB-435 = tested on: MDA-MB-435
T47D = tested on: T47D
SF-539 = tested on: SF-539
UACC-62 = tested on: UACC-62
HT-29 = tested on: HT-29
MCF7 = tested on: MCF7
SR = tested on: SR
BT-549 = tested on: BT-549
KM12 = tested on: KM12
Malme-3M = tested on: Malme-3M
OVCAR-8 = tested on: OVCAR-8
TK-10 = tested on: TK-10
A498 = tested on: A498
OVCAR-3 = tested on: OVCAR-3
MDA-MB-231 = tested on: MDA-MB-231
MDA-N = tested on: MDA-N
IGROV-1 = tested on: IGROV-1
HL-60 = tested on: HL-60
SW-620 = tested on: SW-620
UO-31 = tested on: UO-31
MOLT-4 = tested on: MOLT-4
CAKI-1 = tested on: CAKI-1
HOP-62 = tested on: HOP-62
SF-295 = tested on: SF-295
ACHN = tested on: ACHN

Compound: CC1(C)N=[N+]([O-])C1(C)C
- GI50 (HCT-15): > 100 µM
- GI50 (PC-3): > 100 µM (inactive)
- GI50 (SK-MEL-28): > 100 µM (inactive)
- GI50 (SK-MEL-2): > 100 µM (inactive)
- GI50 (SF-268): > 100 µM (inactive)
- GI50 (U-251): > 100 µM (inactive)
- GI50 (NCI/ADR-RES): > 100 µM (inactive)
- GI50 (786-0): > 100 µM (inactive)
- GI50 (EKVX): > 100 µM (inactive)
- GI50 (COLO 205): > 100 µM (inactive)
- GI50 (OVCAR-5): > 100 µM (inactive)
- GI50 (HCC 2998): > 100 µM (inactive)
- GI50 (NCI-H522): > 100 µM (inactive)
- GI50 (SN12C): > 100 µM (inactive)
- GI50 (LOX IMVI): > 100 µM (inactive)
- GI50 (SNB-19): > 100 µM (inactive)
- GI50 (K562): > 100 µM (inactive)
- GI50 (UACC-257): > 100 µM (inactive)
- GI50 (NCI-H23): > 100 µM (inactive)
- GI50 (A549): > 100 µM (inactive)
- GI50 (Hs-578T): > 100 µM (inactive)
- GI50 (OVCAR-4): > 100 µM (inactive)
- GI50 (DU-145): > 100 µM (inactive)
- GI50 (RXF 393): > 100 µM (inactive)
- GI50 (SNB-75): > 100 µM (inactive)
- GI50 (SK-MEL-5): > 100 µM (inactive)
- GI50 (HCT-116): > 100 µM (inactive)
- GI50 (M14): > 100 µM (inactive)
- GI50 (NCI-H460): > 100 µM (inactive)
- GI50 (RPMI-8226): > 100 µM (inactive)
- GI50 (NCI-H226): > 100 µM (inactive)
- GI50 (SK-OV-3): > 100 µM (inactive)
- GI50 (CCRF-CEM): > 100 µM (inactive)
- GI50 (MDA-MB-435): > 100 µM (inactive)
- GI50 (T47D): > 100 µM (inactive)
- GI50 (SF-539): > 100 µM (inactive)
- GI50 (UACC-62): > 100 µM (inactive)
- GI50 (HT-29): > 100 µM (inactive)
- GI50 (MCF7): > 100 µM (inactive)
- GI50 (SR): > 100 µM (inactive)
- GI50 (BT-549): > 100 µM (inactive)
- GI50 (KM12): > 100 µM (inactive)
- GI50 (Malme-3M): > 100 µM (inactive)
- GI50 (OVCAR-8): > 100 µM (inactive)
- GI50 (TK-10): > 100 µM (inactive)
- GI50 (A498): > 100 µM (inactive)
- GI50 (OVCAR-3): > 100 µM (inactive)
- GI50 (MDA-MB-231): > 100 µM (inactive)
- GI50 (MDA-N): > 100 µM (inactive)
- GI50 (IGROV-1): > 100 µM (inactive)
- GI50 (HL-60): > 100 µM (inactive)
- GI50 (SW-620): > 100 µM (inactive)
- GI50 (UO-31): > 100 µM (inactive)
- GI50 (MOLT-4): > 100 µM (inactive)
- GI50 (CAKI-1): > 100 µM (inactive)

Compound: CCOc1ccc2c(c1)NC(=O)C(C1OC(c3ccccc3)=CC1=O)S2 (stereo not given)
- GI50 (HCT-15): 21.8 µM
- GI50 (PC-3): 13.8 µM (inactive)
- GI50 (SK-MEL-28): 31 µM (inactive)
- GI50 (SK-MEL-2): 40.1 µM (inactive)
- GI50 (SF-268): 27.5 µM (inactive)
- GI50 (U-251): 19.7 µM (inactive)
- GI50 (NCI/ADR-RES): 24.9 µM (inactive)
- GI50 (786-0): 33.3 µM (inactive)
- GI50 (EKVX): 25.1 µM (inactive)
- GI50 (COLO 205): 14 µM (inactive)
- GI50 (OVCAR-5): 16.1 µM (inactive)
- GI50 (HCC 2998): 14.4 µM (inactive)
- GI50 (NCI-H522): 10.4 µM (inactive)
- GI50 (SN12C): 26.7 µM (inactive)
- GI50 (LOX IMVI): 23.2 µM (inactive)
- GI50 (SNB-19): 59.8 µM (inactive)
- GI50 (K562): 24.2 µM (inactive)
- GI50 (UACC-257): 56.5 µM (inactive)
- GI50 (NCI-H23): 28.2 µM (inactive)
- GI50 (A549): 17.3 µM (inactive)
- GI50 (Hs-578T): 27.5 µM (inactive)
- GI50 (HOP-62): 53.2 µM (inactive)
- GI50 (DU-145): 38.5 µM (inactive)
- GI50 (RXF 393): 19.7 µM (inactive)
- GI50 (SK-MEL-5): 18.8 µM (inactive)
- GI50 (HCT-116): 35.6 µM (inactive)
- GI50 (M14): 48.2 µM (inactive)
- GI50 (NCI-H460): 16.3 µM (inactive)
- GI50 (RPMI-8226): 12 µM (inactive)
- GI50 (NCI-H226): 27.7 µM (inactive)
- GI50 (SK-OV-3): 16.1 µM (inactive)
- GI50 (CCRF-CEM): 1.9 µM (inactive)
- GI50 (MDA-MB-435): 18.5 µM (inactive)
- GI50 (T47D): 15.8 µM (inactive)
- GI50 (SF-539): 25.1 µM (inactive)
- GI50 (UACC-62): 15 µM (inactive)
- GI50 (HT-29): 20.2 µM (inactive)
- GI50 (MCF7): 16.2 µM (inactive)
- GI50 (SF-295): 27 µM (inactive)
- GI50 (SR): 15.7 µM (inactive)
- GI50 (BT-549): 32.1 µM (inactive)
- GI50 (KM12): 23.9 µM (inactive)
- GI50 (Malme-3M): 21.1 µM (inactive)
- GI50 (OVCAR-8): 22.5 µM (inactive)
- GI50 (TK-10): 43.7 µM (inactive)
- GI50 (A498): > 100 µM (inactive)
- GI50 (OVCAR-3): 20.1 µM (inactive)
- GI50 (MDA-MB-231): 25.1 µM (inactive)
- GI50 (MDA-N): 25.1 µM (inactive)
- GI50 (IGROV-1): 17 µM (inactive)
- GI50 (HL-60): 44.8 µM (inactive)
- GI50 (ACHN): 37.2 µM (inactive)
- GI50 (SW-620): 33.4 µM (inactive)
- GI50 (UO-31): 29.3 µM (inactive)
- GI50 (CAKI-1): 34.5 µM (inactive)
